Where a SMILES comes first, the peptide text is derived from it. The star is where a group is joined. Cbz = O=C(OCc1ccccc1)*
How the values were obtained:
K695sw cells = experiment: Pulse-chase labeling and immunoprecipitation of chase media and cell lysates (APP processing); assay type: cell-based, human
Description: We first set out to reproduce the published results of Higaki et al. (1995) Neuron, 14:651-659 on the action of the compound MDL 28170 on APP processing, using human kidney 293 cells stably expressing APP695 with the Swedish FAD mutation (K695sw cells). Our experiments were done using a pulse-chase paradigm: K695sw cells were labeled for 2 hours with 35S-methionine and then chased for 2 hours in the presence of 200 μM MDL 28170. Aliquots of the chase media from treated and untreated cells were subjected to SDS-PAGE.
To address this question, we performed pulse-chase experiments on K695sw cells using different doses of MDL 28170, followed by sequential immunoprecipitation of the same media first with 21F12, a monoclonal antibody raised against amino acids 33-42 of Aβ (described above) which specifically precipitates Aβ peptides ending at position 42, and then with antibody 1282 which precipitates all forms of Aβ and p3 (Haass et al., (1992b) Nature 359:322-325) (FIG. 4A). […] Using MDL 28170 at 200 μM, the experiment was repeated four times and the results were quantitated by phosphorimaging (FIG. 4B).
All transfected cell lines described here carry derivatives of pCMV695, a plasmid carrying APP695 under control of the CMV promoter (Selkoe, (1988) Proc. Natl. Acad. Sci. 85:7341-7345) K695sw are human embryonic kidney 293 cells stably transfected with a construct carrying the AD-linked double (“Swedish”) mutation K595N/M596L (Citron et al. (1992) Nature, 360:672-674); K695717I are 293 cells stably transfected with APP695 carrying the mutation V717I (valine to isoleucine at position 717 in the APP770 numbering system). CHO695 are Chinese hamster ovary cells (CHO) stably transfected with pCMV695 (Oltersdorf (1990) J. Biol. Chem. 265:4432-4437) SKN695 are SK-N-SH human neuroblastoma cells stably transfected with pCMV695.
To analyze the effect of MDL 28170 on the processing of APP, cells were grown to confluence in two 10 cm dishes, pulse-labeled with 600 μCi of [^35S]-methionine in 4 ml of serum-free medium for 2 hours and then chased for 2 hours with 4 ml medium containing 10% fetal bovine serum and the indicated final concentration of MDL 28170 (initially dissolved at 200 mM. in DMSO). Control dishes were treated with DMSO alone.
Conditioned media and cell lysates were analyzed by immunoprecipitation, as described (Haass, et al. (1992) Nature 359:322-325). Polyclonal antibody R1736 to residues 595-611 of APP695 was used to precipitate α-APPs (Haass, (1994) J. Biol. Chem. 269:17741-17748). This antibody recognizes an epitope that is specific for the free COOH-terminus of α-cleaved APPs. Polyclonal antibody R1282 was generated to synthetic Aβ1-40 (Haass, et al. (1992) Nature 359:322-325). […]

total Aβ and total p3 = conditions: literature; cited from earlier work

SMILES: CC(C)[C@H](NC(=O)OCc1ccccc1)C(=O)N[C@H](C=O)Cc1ccccc1 [MDL 28170] (Cbz-Val-Phe-aldehyde)
- β-secretase activity (β-cleaved APPs, antibody 192sw immunoprecipitation) (K695sw cells; 200 μM during 2 h chase): does not significantly inhibit

SMILES: CCCC(=O)O[C@@H]1[C@@H](C)[C@@]2(O)[C@@H](C=C(CO)C[C@]3(O)C(=O)C(C)=C[C@@H]23)[C@@H]2C(C)(C)[C@]12OC(=O)CCC [PDBu]
- Aβ(42) (antibody 21F12) (K695sw cells; 1 μM PDBu, 2 h pulse 2 h chase): decreases
- p3(42) (antibody 21F12) (K695sw cells; 1 μM PDBu, 2 h pulse 2 h chase): increase
- total Aβ (subsequent R1282) (K695sw cells; 1 μM PDBu, 2 h pulse 2 h chase): decreases
- total Aβ (total Aβ and total p3): decrease
- total p3 (total Aβ and total p3): increase
